The test system of one assay is ThR mRNA. Kind of assay: Northern blot of ThR mRNA level in neonatal rat ventricular myocytes under normal conditions or hypoxia. The assay is classed as cell-based.
The next assay relates to myocytes. Kind of assay: LDH activity released into the medium of normal and hypoxic myocytes. The assay is classed as cell-based, rat. To be noted: calphostin C 10 nM or 100 nM in the presence and absence of TRAP (10 μM). The protocol:
FIG. 4B. LDH levels were measured in the medium of normal (A,B,E,G) and hypoxic (C,D,F,H) myocytes. TRAP (10 μM) was added (for 48 h) to normal cells (B,E,G) or prior to subjecting the cells to hypoxia (D,F,H). Cells were treated with calphostin C at 10 nM (E,F) or 100 nM (G,H). LDH levels were determined at 340 nm.
Cell viability under hypoxia conditions was measured by lactate dehydrogenase (LDH) assay of the medium by using diagnostic kit according to the manufacturer's instructions (Sigma, St. Louis, Mo.). Released LDH is a stable enzymatic marker that correlates with cell viability. Total LDH activity was determined in culture medium plus LDH released from the cells after treatment with 0.5% Triton X-100. All results are expressed as mean±SEM of triplicate sample (I—Weiscner, M S et al., 1998. Induction of endothelial cell PAS domain protein-1 by hypoxia: characterization and comparison with hypoxia-inducible factor-1-alpha. Blood, 92(7);2260-8. II—Brooks et al., 1998. Modulation of VEGF production by pH and glucose in retinal muller cells. Curr. Eye Res., 17(9):875-882).

Method for ThR mRNA: RNA was prepared using TRI-Reagent (Molecular Research Center, Inc. Cincinnati) according to the manufacturer's instructions. […] For the detection of ThR a 250 nucleotide PCR product was used. The membrane was washed twice for 30 mins. at room temperature with 1×SSC containing 0.1% SDS and twice for 30 mins. at 55° C. with 0.1×SSC, containing 0.1% SDS. The blots were exposed for 2-4 days at −70° C. and the relative amounts of mRNA transcripts were analyzed by laser densitometry using an Ultrascan XL Enhanced Laser Densitometer and normalized relative to an internal β-actin controls.
Primary cultures of neonatal rat ventricular mycocytes were subjected to hypoxia conditions (0% oxygen, 20 torr), and the level of ThR transcripts were compared to the level of the receptor transcripts in cells under normal oxygen levels (21% oxygen). […] The 4.1 kb mRNA was detected following hybridization with full length ThR cDNA and the intensity of the bands was quantitated by densitometry and normalized to the actin transcript levels.
The level of ThR mRNA following hypoxia, in the presence of α-thrombin was also determined. For this, rat ventricular myocytes were subjected to serum free conditions and α-thrombin (5×10^−8M) was added for a period of 48 hours and the level of ThR was determined.
Therefore the effect of interruption of the signaling cascase on the protection effect was analyzed. For this, calphostin C, a protein kinase C (PKC) inhibitor was added during the activation of ThR with TRAP.

For the substance calphostin C, the “protection of ThR transcript level under hypoxia by TRAP” value in the assay with ThR mRNA (hypoxia, TRAP activated ThR in the presence of calphostin C (1 nM, 100 nM)) is “showed no longer the protection”. The “level of ThR mRNA” value with ThR mRNA (normal conditions, calphostin C 200 nM) is listed as “did not affect”. Besides, in the assay with ThR mRNA (normal conditions, calphostin C (1 nM and 100 nM) added together with TRAP (1 μM)), the “level of ThR transcripts” value is given as “did not affect”. For the same substance, the “stressed hypoxic conditions as observed by the released LDH activity” value with myocytes is “did not affect the stressed hypoxic conditions”.

These data come from patent US6461611B1, “Agents for the prevention of damages caused by stress conditions” (Hadasit Medical Research Services & Development Limited, priority 1998, dated 2002).
